Test results as given in US20250099448A1, “HETEROCYCLIC COMPOUNDS” (Hoffmann-La Roche Inc., priority 2022, published 2025).

Molecular target: T1, MAGL protein (Homo sapiens, UniProt Q99685)
T1 sequence (Q99685 1-303): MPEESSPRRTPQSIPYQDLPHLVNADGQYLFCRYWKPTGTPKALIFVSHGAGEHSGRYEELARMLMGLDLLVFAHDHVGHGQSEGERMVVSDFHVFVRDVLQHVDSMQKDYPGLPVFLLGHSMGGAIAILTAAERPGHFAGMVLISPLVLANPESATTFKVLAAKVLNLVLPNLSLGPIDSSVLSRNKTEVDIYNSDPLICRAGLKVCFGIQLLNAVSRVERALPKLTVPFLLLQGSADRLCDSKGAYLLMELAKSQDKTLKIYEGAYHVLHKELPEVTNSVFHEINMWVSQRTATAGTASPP
Assay: 2-AG assay: MAGL inhibitory activity by hydrolysis of 2-arachidonoylglycerol to arachidonic acid, followed by mass spectrometry
Assay type: biochemical
Details: 8 μM 2-arachidonoylglycerol, 15 min preincubation, 30 min reaction at RT, RapidFire MS readout
Protocol: Compounds of formula (I) were profiled for MAGL inhibitory activity by determining the enzymatic activity by following the hydrolysis of the natural substrate 2-arachidonoylglycerol (2-AG) resulting in arachidonic acid, which can be followed by mass spectrometry. This assay is hereinafter abbreviated “2-AG assay”. The 2-AG assay was carried out in 384 well polypropylene assay plates. Compound dilutions were made in 100% DMSO in a polypropylene plate in 3-fold dilution steps to give a final concentration range in the assay from 12.5 μM to […]. Compound dilutions were added to MAGL protein in assay buffer (50 mM TRIS, 1 mM EDTA, 0.01% (v/v) Tween-20, 2.5% (v/v) DMSO). After shaking, the plate was incubated for 15 min at RT. To start the reaction, 2-arachidonoylglycerol in assay buffer was added. The final concentrations in the assay was […] for MAGL protein and 8 μM 2-arachidonoylglyerol. After shaking and 30 min incubation at RT, the reaction was quenched by the addition of two assay volumes of acetonitrile containing 4 μM of d8-arachidonic acid. The amount of arachidonic acid formed was traced by an online SPE system (Agilent Rapidfire) coupled to a triple quadrupole mass spectrometer. A C18 SPE cartridge (Agilent G9205A) was used in an acetonitrile/water liquid setup. The mass spectrometer was operated in negative electrospray mode following the mass transitions 303.1→259.1 for arachidonic acid and 311.1→267.0 for d8-arachidonic acid. The activity of the compounds was calculated based on the ratio of intensities [arachidonic acid/d8-arachidonic acid].

Structure (SMILES)	IC50
O=C(N1CC2(CC(c3nc(C4CC4)n[nH]3)C2)C1)N1CC2(CCN(Cc3ccc(S(=O)(=O)C(F)(F)F)cc3)C2)C1 [compound 703]	2.63 nM
N=S(=O)(c1ccc(CC2CC3(C2)CN(C(=O)N2CC4(CC(c5nc(C6CC6)n[nH]5)C4)C2)C3)nc1)C(F)(F)F (centres unmarked) [compound 739]	1.26 nM
O=C(N1CC2(CC(c3nnc(C4CC4)[nH]3)C2)C1)N1CC(O)(c2ccc(N3CC(C(F)(F)F)C3)cc2)C1 [Example 306, [6-(5-Cyclopropyl-4H-1,2,4-triazol-3 yl)-2-azaspiro[3.3]heptan-2-yl]-[3-hydroxy-3-[4-[3-(trifluoromethyl)azetidin-1-yl]phenyl]azetidin-1 yl)methanone]	2.19 nM
N=S(=O)(c1cccc(CC2CC3(C2)CN(C(=O)N2CC4(CC(c5nc(C6(O)CC6)n[nH]5)C4)C2)C3)c1)C(F)(F)F (centres unmarked) [compound 532]	0.21 nM
O=C(N1CC2(CC(c3nnc(C4CC4)[nH]3)C2)C1)N1CC2(CC(N3CCS(=O)(=O)CC3)C2)C1 [compound 220]	207 nM
O=C(N1CC2(CC(NC(=O)C3(C(F)(F)F)CC3)C2)C1)N1CC2(CC(c3nnc(C4CC4)[nH]3)C2)C1 [compound 222]	40.7 nM
CS(=O)(=O)c1cc(CC2CC3(C2)CN(C(=O)N2CC4(CC(c5nc(C6CC6)n[nH]5)C4)C2)C3)cc(C(F)(F)F)c1 [compound 809]	0.34 nM
N=S(=O)(c1ccc(C2CN(C(=O)N3CC4(CC(c5nc(C6(F)CC6)n[nH]5)C4)C3)C2)cc1)C(F)(F)F (centres unmarked) [compound 564]	0.86 nM
COc1cc(COC2CCN(C(=O)N3CC4(CC(c5nc(C6CC6)n[nH]5)C4)C3)CC2)ccc1C(N)=O [Example 980, 4-[[1-[6-(3-cyclopropyl-1H-1,2,4-triazol-5-yl)-2-azaspiro[3.3]heptane-2-carbonyl]-4-piperidyl]oxymethyl]-2-methoxy-benzamide]	2520 nM
O=C(N1CC(NS(=O)(=O)c2ccc(C(F)(F)F)cc2F)C1)N1CC2(CC(c3nnc(C4CC4)[nH]3)C2)C1 [compound 203]	363 nM
O=C(N1CC2(CC(c3nnc(C4(O)CC4)[nH]3)C2)C1)N1CC2(C1)CN(S(=O)(=O)c1ccccc1OC(F)(F)F)C2 [compound 95]	47.5 nM
O=C(N1CC(c2ccc(C3CC(O)(C(F)(F)F)C3)cc2)C1)N1CC2(CC(c3nnc(C4CC4)[nH]3)C2)C1 (centres unmarked) [compound 291]	0.57 nM
O=C(N1CC(c2ccc(C3(C(F)(F)F)CC3)cc2)C1)N1CC2(CC(c3nnc(C4(O)CC4)[nH]3)C2)C1 [compound 227]	0.91 nM
O=C(N1CC2(CC(Cc3ccc(C(F)(F)F)cn3)C2)C1)N1CC2(CC(c3nnc(C4(O)CC4)[nH]3)C2)C1 [compound 111]	0.6 nM
O=C(N1CC(c2ccc(S(=O)(=O)c3ccccc3)cc2)C1)N1CC2(CC(c3nnc(C4CC4)[nH]3)C2)C1 [compound 371]	0.4 nM
CS(=O)(=O)c1cc(C(F)(F)F)ccc1CN1CC2(C1)CN(C(=O)N1CC3(CC(c4nc(C5CC5)n[nH]4)C3)C1)C2 [compound 889]	2.74 nM
O=C(N1CC2(CC(Cc3cc(F)cc(S(=O)(=O)C(F)(F)F)c3)C2)C1)N1CC2(CC(c3nc(C4CC4)n[nH]3)C2)C1 [compound 654]	0.04 nM
Cc1cc(C2CC2)nn1-c1ccc(C2CN(C(=O)N3CC4(CC(c5nnc(C6CC6)[nH]5)C4)C3)C2)cc1 [compound 288]	0.19 nM
O=C(N1CC(CCc2ccc(C(F)(F)F)cc2F)C1)N1CC2(CC(c3nc(C4(O)CC4)n[nH]3)C2)C1 [compound 349]	2.48 nM
CCn1nc(C(F)(F)F)cc1CN1CC2(C1)CN(C(=O)N1CC3(CC(c4nc(C5CC5)n[nH]4)C3)C1)C2 [compound 553]	4.55 nM
O=C(N1CC2(CCC(Oc3ccc(C(F)(F)F)nn3)CC2)C1)N1CC2(CC(c3nnc(C4CC4)[nH]3)C2)C1 [compound 51]	1.77 nM
O=C(N1CC2(CC(Cc3cc(C(F)F)[nH]n3)C2)C1)N1CC2(CC(c3nc(C4(O)CC4)n[nH]3)C2)C1 [compound 615]	1.65 nM
O=C(N1CC2(CC(Oc3ncc(F)cc3Cl)C2)C1)N1CC2(CC(c3nc(C4CC4)n[nH]3)C2)C1 [compound 622]	0.63 nM
